Results taken from patent publication US8828908B2, “Herbicidally active bicyclic 1,3-dione compounds” (Syngenta Limited, priority 2007, dated 2014).

Legend:
Format in all cases: in vivo
Setaria faberi (SETFA) [1] = experiment: Example B post-emergence herbicidal greenhouse test; settings: 360 h, evaluated after 15 days, 100=total damage to plant, 0=no damage
Description: (§1) Seeds of a variety of test species were sown in standard soil in pots. After cultivation for one day (pre-emergence) or after 10 days cultivation (post-emergence) under controlled conditions in a glasshouse, the plants were sprayed with an aqueous spray solution derived from the formulation of the technical active ingredient in 0.6 ml acetone and 45 ml formulation solution containing 10.6% Emulsogen EL (Registry number 61791-12-6), 42.2% N-methylpyrrolidone, 42.2% dipropylene glycol monomethyl ether (Registry number 34590-94-8) and 0.2% X-77 (Registry number 11097-66-8). The test plants were then grown in a greenhouse under optimum conditions until, 15 days later for post-emergence and 20 days for pre-emergence, the test was evaluated (100=total damage to plant; 0=no damage to plant).
(§2) Alopecurus myosuroides (ALOMY), Avena fatua (AVEFA), Lolium perenne (LOLPE), Setaria faberi (SETFA), Digitaria sanguinalis (DIGSA), Echinochloa crus-galli (ECHCG)

[2] = tested on: Digitaria sanguinalis (DIGSA); experiment: as above; settings: 360 h, evaluated after 15 days, 100=total damage to plant, 0=no damage
Description: as §1, §2

[3] = tested on: Alopecurus myosuroides (ALOMY); experiment: as above; settings: 360 h, evaluated after 15 days, 100=total damage to plant, 0=no damage
Description: as §1, §2

Lolium perenne (LOLPE) [4] = experiment: as above; settings: 360 h, evaluated after 15 days, 100=total damage to plant, 0=no damage
Description: as §1, §2

[5] = tested on: Echinochloa crus-galli (ECHCG); experiment: as above; settings: 360 h, evaluated after 15 days, 100=total damage to plant, 0=no damage
Description: as §1, §2

Avena fatua (AVEFA) [6] = experiment: as above; settings: 360 h, evaluated after 15 days, 100=total damage to plant, 0=no damage
Description: as §1, §2

Setaria faberi (SETFA) [7] = experiment: Example B pre-emergence herbicidal greenhouse test; settings: 480 h, evaluated after 20 days, 100=total damage to plant, 0=no damage
Description: as §1, §2

[8] = tested on: Digitaria sanguinalis (DIGSA); experiment: Example B pre-emergence herbicidal greenhouse test; settings: 480 h, evaluated after 20 days, 100=total damage to plant, 0=no damage
Description: as §1, §2

[9] = tested on: Alopecurus myosuroides (ALOMY); experiment: Example B pre-emergence herbicidal greenhouse test; settings: 480 h, evaluated after 20 days, 100=total damage to plant, 0=no damage
Description: as §1, §2

Lolium perenne (LOLPE) [10] = experiment: Example B pre-emergence herbicidal greenhouse test; settings: 480 h, evaluated after 20 days, 100=total damage to plant, 0=no damage
Description: as §1, §2

[11] = tested on: Echinochloa crus-galli (ECHCG); experiment: Example B pre-emergence herbicidal greenhouse test; settings: 480 h, evaluated after 20 days, 100=total damage to plant, 0=no damage
Description: as §1, §2

Avena fatua (AVEFA) [12] = experiment: Example B pre-emergence herbicidal greenhouse test; settings: 480 h, evaluated after 20 days, 100=total damage to plant, 0=no damage
Description: as §1, §2

SMILES: CCc1ccc(-c2ccccc2)cc1C1=C(O)[C@H]2CC[C@H](C2)C1=O (single isomer, unassigned) [Compound T2]
- pest or weed control at 125 g/ha (Setaria faberi (SETFA) [1]): 30%
- pest or weed control at 125 g/ha [2]: 0%
- pest or weed control at 125 g/ha [3]: 10%
- pest or weed control at 125 g/ha (Lolium perenne (LOLPE) [4]): 0%
- pest or weed control at 125 g/ha [5]: 60%
- pest or weed control at 125 g/ha (Avena fatua (AVEFA) [6]): 0%
- pest or weed control at 250 g/ha (Setaria faberi (SETFA) [7]): 0%
- pest or weed control at 250 g/ha [8]: 0%
- pest or weed control at 250 g/ha [9]: 0%
- pest or weed control at 250 g/ha (Lolium perenne (LOLPE) [10]): 10%
- pest or weed control at 250 g/ha [11]: 100%
- pest or weed control at 250 g/ha (Avena fatua (AVEFA) [12]): 20%

SMILES: Cc1ccc(-c2cccc(Cl)c2)cc1C1=C(O)[C@H]2CC[C@H](C2)C1=O (single isomer, unassigned) [Compound T7]
- pest or weed control at 125 g/ha (Setaria faberi (SETFA) [1]): 0%
- pest or weed control at 125 g/ha [2]: 0%
- pest or weed control at 125 g/ha [3]: 0%
- pest or weed control at 125 g/ha (Lolium perenne (LOLPE) [4]): 0%
- pest or weed control at 125 g/ha [5]: 0%
- pest or weed control at 125 g/ha (Avena fatua (AVEFA) [6]): 0%
- pest or weed control at 250 g/ha (Setaria faberi (SETFA) [7]): 10%
- pest or weed control at 250 g/ha [8]: 20%
- pest or weed control at 250 g/ha [9]: 0%
- pest or weed control at 250 g/ha (Lolium perenne (LOLPE) [10]): 0%
- pest or weed control at 250 g/ha [11]: 0%
- pest or weed control at 250 g/ha (Avena fatua (AVEFA) [12]): 10%

SMILES: Cc1ccc(-c2ccc(Cl)c(C(F)(F)F)c2)cc1C1=C(O)[C@H]2CC[C@H](C2)C1=O (single isomer, unassigned) [Compound T8]
- pest or weed control at 125 g/ha (Setaria faberi (SETFA) [1]): 30%
- pest or weed control at 125 g/ha [2]: 30%
- pest or weed control at 125 g/ha [3]: 10%
- pest or weed control at 125 g/ha (Lolium perenne (LOLPE) [4]): 0%
- pest or weed control at 125 g/ha [5]: 0%
- pest or weed control at 125 g/ha (Avena fatua (AVEFA) [6]): 0%
- pest or weed control at 250 g/ha (Setaria faberi (SETFA) [7]): 70%
- pest or weed control at 250 g/ha [8]: 70%
- pest or weed control at 250 g/ha [9]: 50%
- pest or weed control at 250 g/ha (Lolium perenne (LOLPE) [10]): 50%
- pest or weed control at 250 g/ha [11]: 100%
- pest or weed control at 250 g/ha (Avena fatua (AVEFA) [12]): 30%

SMILES: Cc1ccc(-c2ccc(Cl)c(Cl)c2)cc1C1=C(O)[C@H]2CC[C@H](C2)C1=O (single isomer, unassigned) [Compound T10]
- pest or weed control at 125 g/ha (Setaria faberi (SETFA) [1]): 0%
- pest or weed control at 125 g/ha [2]: 0%
- pest or weed control at 125 g/ha [3]: 10%
- pest or weed control at 125 g/ha (Lolium perenne (LOLPE) [4]): 20%
- pest or weed control at 125 g/ha [5]: 0%
- pest or weed control at 125 g/ha (Avena fatua (AVEFA) [6]): 10%
- pest or weed control at 250 g/ha (Setaria faberi (SETFA) [7]): 80%
- pest or weed control at 250 g/ha [8]: 30%
- pest or weed control at 250 g/ha [9]: 50%
- pest or weed control at 250 g/ha (Lolium perenne (LOLPE) [10]): 20%
- pest or weed control at 250 g/ha [11]: 50%
- pest or weed control at 250 g/ha (Avena fatua (AVEFA) [12]): 0%

SMILES: COc1cc(Cl)ccc1-c1ccc(C)c(C2=C(O)[C@H]3CC[C@H](C3)C2=O)c1 (single isomer, unassigned) [Compound T11]
- pest or weed control at 125 g/ha (Setaria faberi (SETFA) [1]): 10%
- pest or weed control at 125 g/ha [2]: 0%
- pest or weed control at 125 g/ha [3]: 20%
- pest or weed control at 125 g/ha (Lolium perenne (LOLPE) [4]): 0%
- pest or weed control at 125 g/ha [5]: 20%
- pest or weed control at 125 g/ha (Avena fatua (AVEFA) [6]): 20%
- pest or weed control at 250 g/ha (Setaria faberi (SETFA) [7]): 10%
- pest or weed control at 250 g/ha [8]: 0%
- pest or weed control at 250 g/ha [9]: 10%
- pest or weed control at 250 g/ha (Lolium perenne (LOLPE) [10]): 10%
- pest or weed control at 250 g/ha [11]: 10%
- pest or weed control at 250 g/ha (Avena fatua (AVEFA) [12]): 0%

SMILES: Cc1ccc(-c2ccc(Cl)cc2Cl)cc1C1=C(O)[C@H]2CC[C@H](C2)C1=O (single isomer, unassigned) [Compound T12]
- pest or weed control at 125 g/ha (Setaria faberi (SETFA) [1]): 80%
- pest or weed control at 125 g/ha [2]: 60%
- pest or weed control at 125 g/ha [3]: 0%
- pest or weed control at 125 g/ha (Lolium perenne (LOLPE) [4]): 0%
- pest or weed control at 125 g/ha [5]: 70%
- pest or weed control at 125 g/ha (Avena fatua (AVEFA) [6]): 10%
- pest or weed control at 250 g/ha (Setaria faberi (SETFA) [7]): 60%
- pest or weed control at 250 g/ha [8]: 100%
- pest or weed control at 250 g/ha [9]: 30%
- pest or weed control at 250 g/ha (Lolium perenne (LOLPE) [10]): 70%
- pest or weed control at 250 g/ha [11]: 40%
- pest or weed control at 250 g/ha (Avena fatua (AVEFA) [12]): 40%

SMILES: Cc1cc(-c2ccc(C)c(C3=C(O)[C@H]4CC[C@H](C4)C3=O)c2)ccc1Cl (single isomer, unassigned) [Compound T24]
- pest or weed control at 125 g/ha (Setaria faberi (SETFA) [1]): 0%
- pest or weed control at 125 g/ha [2]: 0%
- pest or weed control at 125 g/ha [5]: 30%
- pest or weed control at 250 g/ha (Setaria faberi (SETFA) [7]): 20%
- pest or weed control at 250 g/ha [8]: 70%
- pest or weed control at 250 g/ha [9]: 40%
- pest or weed control at 250 g/ha (Lolium perenne (LOLPE) [10]): 10%
- pest or weed control at 250 g/ha [11]: 80%
- pest or weed control at 250 g/ha (Avena fatua (AVEFA) [12]): 0%
